Assay [1] relates to human lung adenocarcinoma cell line A549. The assay is described as follows: CNT with 5-FU with or without bevacizumab, lung stromal cells NHLF/HMVEC-L, flow cytometer (Example 10). The format is cell-based. Particulars: 5-FU 100 μM, bevacizumab 2 μg per well in the combination, 72 hours. As for the experimental part: (§1) Thereafter, 400 μL of Fixation/Permilization solution (554722, produced by BD Bioscience) was added for fixation at 4° C. for 30 minutes, and the liquid component was removed. Then, 400 μL of Perm/Wash buffer attached to the kit was added, and centrifugation was performed at room temperature at 1120×g for 5 minutes. Thereafter, a primary antibody Monoclonal Mouse Anti-human Cytokeratin 7 (M7018, produced by DAKO) diluted with 5% FBS-containing PBS was added and allowed to react at 4° C. for 30 minutes. Then, the liquid component was removed, and washing was performed twice using Perm/Wash buffer attached to the kit. A secondary antibody Goat anti-Mouse IgG1 Cross-Adsorbed Secondary Antibody, Alexa Fluor 546 (A-11030, produced by Thermo Fischer Scientific) diluted with 5% FBS-containing PBS was added and allowed to react at 4° C. for 30 minutes. Thereafter, the liquid component was removed, washing was performed twice using Perm/Wash buffer attached to the kit, and the resultant was resuspended in 350 μL of 5% FBS-containing PBS.
(§2) The number of cells emitting fluorescence in the suspension after fixation and staining was counted as viable cancer cells. The cell count was performed using a flow cytometer (produced by Sony).
In general terms: A flow cytometer gives signals particle by particle.

Assay [2] deals with HT29. The assay is described as follows: CNT with 5-FU with or without bevacizumab, 2D, spheroid, 3D (Example 5). The format is cell-based, human. Particulars: bevacizumab 2 μg per well in the combination, 72 hours. An excerpt:
Moreover, for comparison, in place of the above cell structures, structures were produced by culturing cancer cells so as to form a single layer in a general culture container (2D method), and spheroids were produced by spheroid culture of a mixture of 2×10^6 NHDF, 3×10^4 HUVEC, and 2×10^4 cancer cells (spheroid method).

The test system of assay [3] is human lung adenocarcinoma cell line A549. In words: CNT with 5-FU with or without bevacizumab, NHDF/HUVEC cell structure, flow cytometer (Example 11). The conditions noted are these: 3D (NHDF, HUVEC), bevacizumab 2 μg per well in the combination, 72 hours. The format is cell-based. As for the experimental part:
as §1, §2

The subject of assay [4] is HCT116. The assay is described as follows: CNT with 5-FU with or without bevacizumab, 2D, spheroid, 3D (Example 5). The format is cell-based, human. The conditions noted are these: bevacizumab 2 μg per well in the combination, 72 hours.

Data on one compound can be found in US11249070B2, “Anti-cancer drug assessment method” (TOPPAN PRINTING CO., LTD., priority 2016, dated 2022).

The structures appear in SMILES notation.

For `O=c1[nH]cc(F)c(=O)[nH]1` [5-FU], the “CNT (%) Average value” is 37.7% in assay [1] (2D); 72.9% in assay [1] (3D (NHLF, HMVEC-L)); 54.2% in assay [2] (2D, 5-FU 100 μM); 25.8% in assay [2] (2D, 5-FU 1 mM); 75.0% in assay [2] (3D, 5-FU 1 mM); 57.5% in assay [2] (Spheroid, 5-FU 100 μM). The “CNT (%) Average value” amounted to 44.8% in assay [2] (Spheroid, 5-FU 1 mM); 28.8% in assay [3] (5-FU 100 μM); 7.7% in assay [3] (5-FU 1 mM); 38.9% in assay [4] (2D, 5-FU 100 μM); 15.3% in assay [4] (2D, 5-FU 1 mM); 86.9% in assay [4] (3D, 5-FU 100 μM). The “CNT (%) Average value” in assay [4] (Spheroid, 5-FU 100 μM) is reported as 62.3%; in assay [4] (Spheroid, 5-FU 1 mM), 27.7%.
